Reference: publication PMC6936348, “Reactivation of Epstein–Barr virus by a dual-responsive fluorescent EBNA1-targeting agent with Zn^2+-chelating function” (Proceedings of the National Academy of Sciences of the …, 2019)

Key:
[1] = test system: EBNA1 monomer homodimerization; conditions: peptide P4; cited from earlier work
From the text: (§1) Epstein–Barr nuclear antigen 1 (EBNA1) is the only viral protein expressed in nearly all forms of EBV latency and its associated cancers which plays a vital role in the maintenance of viral genome ([3]). EBNA1 is also important for the transcriptional activation of some other EBV latency genes ([4]). Homodimerization of EBNA1 is known to be critical for EBNA1–DNA binding and the subsequent functions of oriP (latent origin of replication), including viral DNA replication and segregation, maintenance of the EBV episomal genome, and transcriptional activation ([5]). Thus, EBNA1 not only serves as ...

EBV-infected cells = conditions: peptide P4; cited from earlier work
From the text: as §1

[2] = Fluorescence response toward Zn2+; format: binding; conditions: 2 µM probe, excitation 337 nm
[3] = test system: EBV-positive NPC43, C666-1 and Raji cells; experiment: MTT cytotoxicity, EBV-positive cell panel; format: cell-based; conditions: 1 to 20 µM, 5 d
[4] = test system: EBV-positive C666-1 and NPC43 cells; experiment: Two-photon imaging, subcellular localization in EBV-positive cells; format: cell-based; conditions: 10 µM, 3 h, two-photon λex 700 nm
[5] = test system: Rta, BMRF1, gp350/220 in NPC43 cells; experiment: Western blot of lytic proteins in NPC43; format: cell-based, Epstein–Barr virus; conditions: 10 µM, 7 d
From the text: Fig. 5. EBV lytic induction analysis of EBV-positive tumors and cells in response to the EBNA1 probes. (A) IHC analysis of lytic proteins Zta, BMRF1, and VCA-p18 in the transplanted C666-1–derived tumor tissues as described in Fig. 4 E–G. Representative results are shown. […] Insets (in the red boxes) are the enlarged images to indicate the cellular localization of the 3 proteins. Negative control staining images are included for the mouse antibodies (mAb) against Zta and BMRF1 and for the rat antibody (rAb) against VCA-p18. Magnification, 400×. […] TPA/NaB (20 ng/mL TPA, 3 mM NaB) serves as a positive control of lytic induction. The presence of these 4 lytic proteins is indicated by red signals. The nuclei were stained with DAPI. […] Acetylated histone H3 (Ac-Histone H3) was also detected. β-actin serves as the loading control. […] The gene expression was analyzed by qRT-PCR. The fold change of relative gene expression after each treatment was compared with the solvent control (DMSO). Data are expressed as the means ± CI.
Western blot analysis of Zta, Rta, BMRF1, and gp350/220 was performed as reported ([41]). The Rta antibody was supplied from Argene (Verniolle) and the β-actin antibody for loading control was supplied from Cell Signaling Technology. Antibodies against Zta, BMRF1, gp350/220, Dicer1, and PML were the ones used for IF staining. A 1:400 dilution of the primary antibodies was used.

[6] = test system: infectious EBV particles from HONE-1-EBV cells; experiment: EBV infection assay (Raji cell assay, virions from HONE-1-EBV); format: cell-based, Epstein–Barr virus; conditions: 10 µM, 4 d, triplicate, P = 0.009 (ZRL5P4), P = 0.06 (ZRL5P2)
HeLa xenograft = conditions: 4 μg/injection every three days, 19 days, vs control
C666-1 xenograft = experiment: C666-1 xenograft, intratumoral injection; conditions: 4 µg per injection twice weekly, 18 d, n = 5
[7] = target: the molecule itself; experiment: self-association assay read by SDS-PAGE and anti-His Western blot

For CAhxYFMVFGGRrRK [P4], which EBNA1 homodimerization [1] is on record?
The EBNA1 homodimerization was “able to interfere with the homodimerization of the EBNA1 monomer”.

What about the EBV-infected cell growth (EBV-infected cells) of the same molecule?
Its EBV-infected cell growth is “suppress EBV-infected cell growth”.

With YFMVF [ZRL5P2] as the molecule, how does the “Emission change upon addition of Zn2+” value ([2]; 2 equiv. Zn2+, CH3CN/0.05 M Hepes pH 7.4, 50:50) read?
The value was “slightly blue-shifted emission”.

What about the “Maximum emission wavelength, without Zn2+” value ([2]; CH3CN/0.05 M Hepes pH 7.4, 50:50, absence of Zn2+) of the same molecule?
Its value is 448 nm.

And the “Maximum emission wavelength, with Zn2+” value ([2]; CH3CN/0.05 M Hepes pH 7.4, 50:50, presence of Zn2+)?
Its value is 445 nm.

What about the “Growth-inhibitory effect, comparison” value [3] of the same molecule?
The value was “the least efficient one”.

What about the Subcellular localization [4] of the same molecule?
Its Subcellular localization is “only found in the cytoplasm”.

What about the “Rta and BMRF1 expression” value [5] of the same molecule?
The value was “much weaker than those of ZRL5P4”.

What about the “Virion production versus DMSO control” value [6] of the same molecule?
The value was 2.6 fold.

What about the Body weights (HeLa xenograft) of the same molecule?
Its Body weights is “did not cause any significant changes in body weights”.

And the Tumor growth (C666-1 xenograft)?
The Tumor growth was “did not significantly affect tumor growth”.

B1: Full-length EBNA1 (residues 1 to 641) with an N-terminal His tag (ab138345; Abcam) (natural protein)
chain: MSDEGPGTGPGNGLGEKGDTSGPEGSGGSGPQRRGGDNHGRGRGRGRGRGGGRPGAPGGSGSGPRHRDGVRRPQKRPSCIGCKGTHGGTGAGAGAGGAGAGGAGAGGGAGAGGGAGGAGGAGGAGAGGGAGAGGGAGGAGGAGAGGGAGAGGGAGGAGAGGGAGGAGGAGAGGGAGAGGGAGGAGAGGGAGGAGGAGAGGGAGAGGAGGAGGAGAGGAGAGGGAGGAGGAGAGGAGAGGAGAGGAGAGGAGGAGAGGAGGAGAGGAGGAGAGGGAGGAGAGGGAGGAGAGGAGGAGAGGAGGAGAGGAGGAGAGGGAGAGGAGAGGGGRGRGGSGGRGRGGSGGRGRGGSGGRRGRGRERARGGSRERARGRGRGRGEKRPRSPSSQSSSSGSPPRRPPPGRRPFFHPVGEADYFEYHQEGGPDGEPDVPPGAIEQGPADDPGEGPSTGPRGQGDGGRRKKGGWFGKHRGQGGSNPKFENIAEGLRALLARSHVERTTDEGTWVAGVFVYGGSKTSLYNLRRGTALAIPQCRLTPLSRLPFGMAPGPGPQPGPLRESIVCYFMVFLQTHIFAEVLKDAIKDLVMTKPAPTCNIRVTVCSFDDGVDLPPWFPPMVEGAAAEGDDGDDGDEGGDGDEGEEGQE
notes: source: bought: Abcam (ab138345); not shown: His tag, N-terminal, kept
With B1 as the molecule, how does the “stoichiometry N” value [7] read?
Its value is 2.
